Experimental data reported in US12383535B2, “Hydrogen peroxide-responsive KEAP1-NRF2 ppi inhibitor prodrug, and preparation method therefor” (CHINA PHARMACEUTICAL UNIVERSITY, priority 2019, dated 2025).

What was measured:
C57BL/6 mice = test: LPS-induced mouse acute inflammation model; assay type: in vivo; details: LPS 300 μg/kg mice
Method: Female C57BL/6 mice (6-8 weeks old, 18-20 g in weight) were acclimatized with drinking water for 2 days, and were randomized to eight groups: (A) control group (n=3); (B) LPS (Sigma-Aldrich, St. Louis, No. L4130) model group (300 μg/kg/day, n=8); (C) LPS (300 μg/kg/day)+pro2 low-dose (10 mg/kg/day) group (n=8); (D) LPS (300 μg/kg/day)+pro2 high-dose (40 mg/kg/day) group (n=8); (E) LPS (300 μg/kg/day)+active parent compound 2 high-dose (40 mg/kg/day) group (n=8); (F) LPS (300 μg/kg/day)+dexamethasone low-dose (10 mg/kg/day) group (n=8); (G) pro2 high-dose (40 mg/kg/day) group (n=3); and (H) active parent compound 2 high-dose (40 mg/kg/day) group (n=3). Animals of groups A, G and H were given IP injections of 500 μL of normal saline each time (on days −3, −2 and −1). All LPS-stimulated mice were IP-injected with 500 μL of LPS (on days −3, −2 and −1), and 4 h after the injection the mice were given corresponding compound treatment (on days −3, −2 and −1). Animals were sacrificed (day 0) 24 h after the last dose of the compound to collect the serum, and the levels of cytokine IL-1β, IL-6, TNF-α and IFN-γ in the serum were determined by ELISA.

[1] = In vivo pharmacokinetic study; design: species or system SD rats; details: rat
Method: Six male SD rats weighing about 260 g were used, with 3 rats for PO study and the other 3 rats for IV study. The test compound was dissolved in normal saline with a cosolvent to prepare a solution before the study. For the PO study, animals were administered orally (10 mg/kg). […] Blood was sampled at 0.0833, 0.25, 0.5, 1, 2, 4, 6, 8, 24 h in groups IV and PO. The blood samples were preserved on ice and then centrifuged at 2000 rpm and 4° C. for 10 min for separating plasma. The plasma samples were transferred and stored at −80° C. before analysis by LC-MS/MS.

RAW264.7 cells = test: IL-1β, IL-6, TNF-α and NO assays in cell culture supernatant; assay type: cell-based, mouse
Method: IL-1β (IL-1β (m) ELISA kit, EK0394, Boster), IL-18 (IL-18 (m) ELISA kit, EMC011, NeoBioscience), IL-6 (IL-6 (m) ELISA kit EK0411, Boster), TNF-α (TNF-α (m) ELISA kit, EK0527, Boster) and NO (nitrate/nitrite assay kit, S0023, Beyotime, China) were tested using commercially available kits according to the manufacturer's instructions.
Then, several inflammatory mediators closely related to ROS, including IL-1β, IL-6, TNF-α and NO, were further evaluated.

[2] = Aqueous solubility (pSOL); assay type: physicochemical
Method: Through Avdeef-Bucher potentiometric titration, pKa and partition coefficients (log D, pH 7.4) were determined on a Gemini Profiler instrument (pION) according to the method of Avdeef and Tsinman. pH measurements were used to determine the intrinsic solubility.
Potential solubility data were obtained with a pSOL model 3 instrument (pION INC, Cambridge, Massachusetts, USA). Cell membrane permeability was determined on a PAMPA Explorer instrument (pION).

[3] = system: Nrf2-ARE in RAW264.7 cells; test: ARE inductivity under LPS stimulation; assay type: cell-based, mouse
[4] = system: Nrf2/ARE luciferase reporter in HepG2-ARE-C8 cells; test: ARE-luciferase activity assay; assay type: cell-based; details: no LPS (physiological conditions)
Method: HepG2-ARE-C8 cells were plated in a 96-well plate at a density of 4×10^4 cells/well and incubated overnight. The cells were then incubated with different concentrations of the test compound, with DMSO as a negative control and a luciferase cell lysis agent as a blank control. After 12 h of treatment, the medium was removed and 100 μL of pre-cooled PBS was added to each well to wash the cells. PBS was then removed and 30 μL of the luciferase cell lysis agent was added. After 15 min of lysis on ice, the cells were harvested and centrifuged, and 20 μL of the supernatant was taken for luciferase activity assay according to the protocol provided by the manufacturer (Promega, Madison, WI). The luciferase activity was measured by Luminoskan Ascent (Thermo Scientific, USA). The assay was performed in triplicate and the inductivity fold was calculated by comparing with the control.

[5] = Stability in artificial gastric and intestinal fluids (SGF, SIF); assay type: physicochemical; details: after 8 h
Method: (4) Stability in artificial gastric and intestinal fluids. Artificial gastric and intestinal fluids were purchased from commercial suppliers. Samples of prodrug (20 μM) were incubated in triplicate with artificial gastric or intestinal fluids at 37° C. for different periods of time. The enzyme protein was precipitated by adding methanol, and the samples were vortexed and then centrifuged at 5000 rpm for 5 min. The supernatants of the samples were analyzed by HPLC and the peak areas were recorded. All chromatographic conditions were as described above.

AUC0-t ([1]; I.V. 2 mg/kg): 1842 ± 363 ng·h/mL
AUC0-∞ ([1]; I.V. 2 mg/kg): 1854 ± 366 ng·h/mL
Cl_F ([1]; I.V. 2 mg/kg): 18.5 ± 3.9 mL/min/kg
MRT ([1]; I.V. 2 mg/kg): 1.25 ± 0.30 h
T1/2 ([1]; I.V. 2 mg/kg): 4.41 ± 3.01 h
Vz_F ([1]; I.V. 2 mg/kg): 6.44 ± 4.09 L/kg
AUC0-t ([1]; P.O. 10 mg/kg): 6203 ± 248 ng·h/mL
AUC0-∞ ([1]; P.O. 10 mg/kg): 6315 ± 273 ng·h/mL
Cl_F ([1]; P.O. 10 mg/kg): 26.4 ± 1.14 mL/min/kg
Cmax ([1]; P.O. 10 mg/kg): 2753 ± 15.3 ng/mL
MRT ([1]; P.O. 10 mg/kg): 1.82 ± 0.35 h
T1/2 ([1]; P.O. 10 mg/kg): 2.09 ± 0.93 h
Tmax ([1]; P.O. 10 mg/kg): 0.67 ± 0.29 h
Vz_F ([1]; P.O. 10 mg/kg): 4.79 ± 2.17 L/kg
bioavailability ([1]; oral): 68.1%
EC50 (RAW264.7 cells; Mus musculus, LPS-stimulated RAW264.7 cells, read-out: EC50 for reduction of extracellular NO concentration): 120 nM
Aqueous solubility at pH 7.4 [2]: 879.6 μg/mL
EC50 ([3]; Mus musculus, RAW264.7, under LPS stimulation, read-out: EC50 of ARE inductivity): 320 nM
remaining in simulated gastric fluid (SGF) ([5]; SGF): > 50%
remaining in simulated intestinal fluid (SIF) ([5]; SIF): > 50%
Compound: COc1ccc(S(=O)(=O)Nc2ccc(N(CC(=O)N3CCSC3=O)S(=O)(=O)c3ccc(OC)cc3)c3ccccc23)cc1 [pro2]
anti-inflammatory effect (serum IL-1β, IL-6, TNF-α, IFN-γ) (C57BL/6 mice; compound 10 mg/kg): comparable therapeutic effect to dexamethasone
anti-inflammatory effect (serum IL-1β, IL-6, TNF-α, IFN-γ) (C57BL/6 mice; compound high dose 40 mg/kg, oral): stronger effect
production of IL-1β, IL-6 and TNF-α in supernatant (RAW264.7 cells; LPS-treated RAW264.7 cell culture): significant advantages in inhibiting production
inductivity of Nrf2-ARE at different concentrations of LPS ([3]; RAW264.7 cells stimulated with LPS prior to administration, compound 200 nM): LPS concentration-dependent increase
ARE inductivity [4]: remained almost inactive even at the highest concentration
